From patent US6156724A, “Uses of didemnins as immunomodulating agents” (priority 1998, dated 2000)
pIC50: −log10 of the molar value. Numbered stars: 1 amine (or outer) side, 2 acyl side, 3 side chain; on linkers, the order of the positions; unused ones are H or OH. Bridge positions count the residues as written; N and C are the ends. Square brackets hold non-standard residues; d marks the D form. Peptide text beside a SMILES is read from it. * marks the point of attachment. X1 = CC[C@H](C)[C@@H](N[*:1])[C@@H](O)CC(=O)O[C@H](C(=O)[C@H](C)C(=O)[*:2])C(C)C; NMeY = CN[C@@H](Cc1ccc(O)cc1)C(=O)O; dNMeL = CN[C@H](CC(C)C)C(=O)O; Lauroyl = CCCCCCCCCCCC(=O)*; Pentanoyl = CCCCC(=O)*

What was measured:
[1] = tested on: murine splenocytes (Balb/c and C57B1/6); assay: Two-way mixed lymphocyte reaction (MLR) assay; conditions: Balb/c + C57B1/6 splenocytes, 96 h, [3H]thymidine; for pIC50: read-out: two-way mixed lymphocyte reaction (MLR) suppression MLR, IC50;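 on all read-outs here: proliferation read as tritiated thymidine incorporation into newly made DNA after an overnight pulse, expressed as percent of control activity, IC50 interpolated per compound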
[2] = tested on: concanavalin A-induced lymphoblasts (Con A splenocytes); assay: Lymphoblast viability (LbV) assay; conditions: Con A-stimulated splenocytes (lymphoblasts), MTT
[3] = tested on: Balb/c splenocytes (resting lymphocytes); assay: Lymphocyte viability (LcV) assay; type: cell-based, murine; conditions: unstimulated Balb/c splenocytes, MTT
Experimental: Forty two (42) didemnin compounds (see Table 1) were evaluated for cytotoxicity to one of the lymphocyte populations in the MLR (i.e., Balb/c splenocytes). The purpose of the lymphocyte viability assay (LcV) is to measure metabolic activity in lymphocytes after they have been exposed to the compounds for the duration of an under conditions equivalent to the MLR. The inverse of the data yields cytotoxicity information about the compounds on murine lymphocytes. The rationale of using resting cells, in this case unstimulated lymphocytes, to measure cytotoxicity has a strategic importance. In the MLR the heterogenous cell populations are predominantly resting cells when the assay begins.
Test compounds were prepared in two sets as described above. Splenocytes were prepared as described previously from one murine strain (Balb/c), and a volume of 200 μL of the cell suspension was added to one set of test compounds and control wells.
Assay plates were incubated as in the MLR and then pulsed overnight 75 μL per well MTT-thiazolyl blue solution (150 μg). The plates were decanted and the resulting insoluble formazan crystals were dissolved in 200 μL of isopropyl alcohol. Absorbance at 570 nm was measured.
The LcV data were calculated as a percentage of basal metabolic activity, or percent viability, relative to BALB/c control, and an LC50 value was interpolated for each test compound.

[4] = tested on: CB6F1 mice grafted with Balb/c splenocytes; assay: Graft vs host reaction (GVHR) splenomegaly assay; type: in vivo; conditions: 200 mg/Kg/day, QD 1-7, ip
Experimental: Three representative compounds didemnin M (38), O-pGlu-DB (37), and didemnin B (1)-showing high (37,38) or moderate (1) in vivo immunosuppressive activity were subsequently evaluated in a multidose assay (0.16,0.016, and 0.0016 mg/kg per injection; qd 1-7) for their in vivo immunosuppressive effects on the GVHR splenomegaly assay.
Three didemnins (didemnin B, didemnin M, and pGlu-didemnin B) were evaluated in a modified Simonsen splenomegaly assay. Briefly, an F1 hybrid host animal is grated with immunocompetent spleen cells from the parent strain. The index used to measure the success of the GVHR is splenomegaly (increased spleen weight due to cellular proliferation of grafted lymphocytes). An index>1.3 (graft index) is considered to be a successful graft rejection of the recipient animal. Immunosuppression is considered as a reduction of the graft index.
On day O, CB6F1 female mice, 4 weeks of age, were grated by intraperitoneal (ip) injection of 50×10^5 splenocytes from BALB/c female mice in high-glucose ([…]) Dulbecco's modified Eagles medium. A syngeneic control group (CB6F1 --CB6F1) was similarly prepared and served as the negative control. Grafted mice were divided into treatment groups containing six mice each. Groups were injected ip with test compound (dissolved in vehicle; 1% abs. EtOH in sterile phosphate-buffered saline) at one of three dose levels (0.16, 0.016, and 0.0016 mg/kg per injection) in a multidose assay, cyclophosphamide (200 mg/kg per injection) or vehicle on days 1-7 (qd 1-7). On day 8 all groups were sacrificed, spleens were excised, and a graft index was calculated for each group by the following formula: [formula]

Row | Compound | two-way mixed lymphocyte reaction (MLR) suppression MLR, IC50 [1] [ng/mL] | pIC50 [1] | cytotoxicity to lymphocytes LbV, LC50 [2] [nM] | cytoxicity to lymphocytes LcV, LC50 [3] [nM] | cytoxicity to lymphocytes LcV, LC50 ([3]; highest concentration 10 μg/mL) [ng/mL] | alive day 8 [4] [%] | body weight change day 5 [4] [g] | body weight day 5 (g ± SD) [4] [g] | index (spleen wt. treated/spleen wt. syngenetic injection) [4] | mean group spleen wt. normalized to day 8 body weight [4]
1 | CC[C@H](C)[C@H]1NC(=O)[C@@H](NC(=O)[C@@H](CC(C)C)N(C)C(=O)[C@@H]2CCCN2C(=O)[C@H](C)O)[C@@H](C)OC(=O)[C@H](Cc2ccc(OC)c(I)c2)N(C)C(=O)[C@@H]2CCCN2C(=O)[C@H](CC(C)C)NC(=O)[C@@H](C)C(=O)[C@H](C(C)C)OC(=O)C[C@@H]1O [Compound 14, Iododidemnin B] | 0.81 | 9.18 | 0.82 | > 8100 | > 10000 | – | – | – | – | –
2 | CC[C@H](C)[C@H]1NC(=O)[C@@H](NC(=O)[C@@H](CC(C)C)N(C)C(C)=O)[C@@H](C)OC(=O)[C@H](Cc2ccc(OC)cc2)N(C)C(=O)[C@@H]2CCCN2C(=O)[C@H](CC(C)C)NC(=O)[C@@H](C)C(=O)[C@H](C(C)C)OC(=O)C[C@@H]1O [Compound 18, N^α -Acetyldidemnin A] (Ac-[dNMeL]T[X1]LP[NMeY](Me); ester 2-C) | 0.027 | 10.57 | 0.39 | > 10000 | > 10000 | – | – | – | – | –
3 | [Phth-Ala^9 ]DB [Compound 8] | 0.49 | 9.41 | 0.81 | > 8100 | > 10000 | – | – | – | – | –
4 | CCCCC(=O)N(C)[C@H](CC(C)C)C(=O)N[C@@H]1C(=O)N[C@H]([C@@H](C)CC)[C@@H](O)CC(=O)O[C@@H](C(C)C)C(=O)[C@H](C)C(=O)N[C@@H](CC(C)C)C(=O)N2CCC[C@H]2C(=O)N(C)[C@@H](Cc2ccc(OC)cc2)C(=O)O[C@@H]1C [Compound 21, N^α -Pentanoyldidemnin A] (Pentanoyl-[dNMeL]T[X1]LP[NMeY](Me); ester 2-C) | 0.48 | 9.32 | 0.059 | 9700 | > 10000 | – | – | – | – | –
5 | CCCCCCCCCCCC(=O)N(C)[C@H](CC(C)C)C(=O)N[C@@H]1C(=O)N[C@H]([C@@H](C)CC)[C@@H](O)CC(=O)O[C@@H](C(C)C)C(=O)[C@H](C)C(=O)N[C@@H](CC(C)C)C(=O)N2CCC[C@H]2C(=O)N(C)[C@@H](Cc2ccc(OC)cc2)C(=O)O[C@@H]1C [Compound 24, N^α -Dodecanoyldidemnin A] (Lauroyl-[dNMeL]T[X1]LP[NMeY](Me); ester 2-C) | 119 | 6.97 | 160 | > 8900 | > 10000 | – | – | – | – | –
6 | CC[C@H](C)[C@H]1NC(=O)[C@@H](NC(=O)[C@@H](CC(C)C)N(C)C(=O)[C@@H]2CCCN2C(=O)[C@H](C)O)[C@@H](C)OC(=O)[C@H](CC2CCC(OC)CC2)N(C)C(=O)[C@@H]2CCCN2C(=O)[C@H](CC(C)C)NC(=O)[C@@H](C)C(=O)[C@H](C(C)C)OC(=O)C[C@@H]1O (stereo partly drawn) [Compound 15, [H6 Me2 Tyr6]Didemnin B] | 0.81 | 9.14 | 1.6 | – | – | – | – | – | – | –
7 | O=P1(N(CCCl)CCCl)NCCCO1 (stereo not drawn) [Cyclophosphamide, reference compound] | – | – | – | – | – | 100 | -2.5 | 13.8 ± 0.4 | 0.14 | 0.4
